Results published in ChEMBL document CHEMBL1201862, “PubChem BioAssay data set” (2004).
Calls of active or inactive are those of the source.

Tests used:
[1] = A549 cell cytotoxicity, dose response, cytotoxicity control, plate reader, cherry-pick, antagonist series (AID 743412); assay type: functional, cell-based
[2] = ADP-Glo luciferase signal interference – biochemical, luminescence, cherry-picked samples, set 2, artefact control for CDK5 inhibitor project, dose response (AID 504546); assay type: functional, cell-based
[3] = tested on: BJ; assay: BJ-TERT-LT-ST fibroblast viability loss – cell-based, RAS-independent, luminescence, dose response (AID 1935); assay type: functional; settings: Homo sapiens;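 note: BJ fibroblasts immortalized with TERT plus LT and ST oncogenes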
[4] = target: Luciferin 4-monooxygenase (Photinus pyralis, UniProt P08659); assay: inhibition of purified Photinus pyralis luciferase – biochemical, luminescence, dose response (AID 1891)
[5] = blockade of melanocortin 4 receptor signaling – cell-based, plate reader, cherry pick, counter-screen for LGR2 antagonist project, dose response (AID 743444); assay type: functional;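 note: transfected HEK 293 cells stimulated with alpha-MSH peptide; potency of inhibitors of the alpha-MSH evoked signal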
[6] = tested on: BJ; assay: BJ-TERT fibroblast viability loss – cell-based, RAS-independent, luminescence, dose response (AID 1933); assay type: functional; settings: Homo sapiens
[7] = target: Dual specificity tyrosine-phosphorylation-regulated kinase 1A (Rattus norvegicus, UniProt Q63470); assay type: biochemical, Homo sapiens
[8] = blockers of bursicon-stimulated LGR2 cAMP reporter – cell-based, HEK293, CRE-luciferase reporter, cherry pick, set 2, dose response (AID 743343); assay type: functional;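 note: transfected cells were stimulated with diluted bursicon conditioned medium after compound addition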
[9] = DRD fibroblast viability loss – cell-based, non-viral oncogenic, luminescence, dose response (AID 1934); assay type: functional; settings: Homo sapiens
[10] = luciferase inhibitors in kinase-free ADP detection – biochemical, luminescence, cherry-pick, set 02, artefact control for Dyrk1A inhibitor project, dose response (AID 588348)
[11] = Luminescence Cell-Based Dose Confirmation HTS to Identify Inhibitors of Platelet Dense Granule Release. [Related pubchem assays: 1663 (Primary HTS), 1678 (Summary of Project)]; assay type: functional
[12] = target: T1, Microphthalmia-associated transcription factor (Homo sapiens, UniProt O75030); assay: reducers of TRPM1 reporter luminescence, concentration series – cell-based, SK-MEL-5, cherry-picked, set 3, MITF inhibitor project, dose response (AID 493073); assay type: functional;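 note: SK-MEL-5 melanoma cells with luciferase driven by the MITF target TRPM1 promoter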
T1 sequence (O75030 whole entry): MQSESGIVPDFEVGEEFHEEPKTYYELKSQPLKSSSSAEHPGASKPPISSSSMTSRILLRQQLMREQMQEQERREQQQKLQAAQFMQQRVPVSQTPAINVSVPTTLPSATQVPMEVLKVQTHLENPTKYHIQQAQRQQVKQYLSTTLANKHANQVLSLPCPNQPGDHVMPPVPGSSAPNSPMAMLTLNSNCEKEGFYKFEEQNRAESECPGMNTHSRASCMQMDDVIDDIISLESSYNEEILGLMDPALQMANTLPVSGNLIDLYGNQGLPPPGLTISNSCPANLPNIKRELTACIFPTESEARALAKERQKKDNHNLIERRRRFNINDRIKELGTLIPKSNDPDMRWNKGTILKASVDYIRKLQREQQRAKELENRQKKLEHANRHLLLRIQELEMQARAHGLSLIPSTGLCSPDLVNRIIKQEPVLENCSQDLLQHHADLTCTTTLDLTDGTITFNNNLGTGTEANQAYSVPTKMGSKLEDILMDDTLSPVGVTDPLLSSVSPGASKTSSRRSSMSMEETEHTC

[13] = tested on: BJ; assay: cells; assay type: functional, cell-based; settings: Homo sapiens
[14] = viability loss in HEK293 cells – cell-based, plate reader, cherry-picked samples, cytotoxicity control, dose response (AID 743446); assay type: functional
[15] = toxicity toward HepG2 liver cells – cell-based, plate reader, cherry-pick, antagonist series, cytotoxicity control, dose response (AID 743416); assay type: functional
[16] = loss of viability in HepG2 cells – cell-based, CellTiter-Glo, cherry-picked, cytotoxicity control for Shn3 inhibitor project, dose response (AID 624134); assay type: functional
[17] = target: T2, High affinity choline transporter 1 (Homo sapiens, UniProt Q9GZV3); assay: human choline transporter potentiators, potency – cell-based, 10-point CRC, membrane potential dye, dose response (AID 602376); assay type: functional
T2 sequence (Q9GZV3 whole entry): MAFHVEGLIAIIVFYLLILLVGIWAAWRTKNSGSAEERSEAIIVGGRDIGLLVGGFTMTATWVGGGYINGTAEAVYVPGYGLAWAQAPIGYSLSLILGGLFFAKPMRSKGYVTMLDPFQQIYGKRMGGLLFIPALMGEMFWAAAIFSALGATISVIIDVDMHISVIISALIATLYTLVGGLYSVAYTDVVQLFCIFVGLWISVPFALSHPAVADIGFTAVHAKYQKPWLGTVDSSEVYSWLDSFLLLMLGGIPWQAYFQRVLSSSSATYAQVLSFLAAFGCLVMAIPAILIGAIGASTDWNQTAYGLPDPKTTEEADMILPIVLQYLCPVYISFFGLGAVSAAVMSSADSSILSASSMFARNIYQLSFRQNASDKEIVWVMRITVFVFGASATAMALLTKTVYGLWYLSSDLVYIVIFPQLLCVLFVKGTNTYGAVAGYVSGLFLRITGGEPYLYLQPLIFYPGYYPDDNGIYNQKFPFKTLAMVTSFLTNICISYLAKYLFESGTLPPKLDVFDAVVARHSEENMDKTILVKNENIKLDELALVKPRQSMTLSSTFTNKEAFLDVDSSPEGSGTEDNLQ

[18] = target: Heat shock protein HSP 90-alpha (Homo sapiens, UniProt P07900); assay type: functional, organism-based
[19] = THP-1 cell cytotoxicity, dose response, cytotoxicity control for non-replicating M. tuberculosis project (AID 489025); assay type: functional
[20] = NIH3T3 cell viability loss – ATP luminescence, mouse fibroblasts, counter-screen, dose response (AID 2010); assay type: functional, cell-based;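 note: cells exposed to compound for about 90 hours before reading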
[21] = Trypanosoma cruzi growth suppression in host cells – NIH3T3 host cells, beta-gal luminescence, confirmation (AID 2044); assay type: functional, cell-based;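 note: intracellular parasites grown in NIH/3T3 mouse fibroblasts as host cells; luminescent beta-galactosidase reporter signal from transgenic T. cruzi replicating inside host cells; inhibitors lower the luminescence signal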
[22] = cells; assay type: functional
[23] = microbe, parasite or virus in culture; assay type: functional; settings: Mycobacterium tuberculosis
[24] = A Cell Based Secondary Assay to Explore Cytotoxicity in HepG2 Cells of Compounds that Modulate Mycobacterium tuberculosis in Media Containing Glycerol versus Media without Glycerol (2).; assay type: functional
[25] = Vero cell cytotoxicity, cytotoxicity control for M. tuberculosis inhibitor project, purified and synthesized samples, set 3 (AID 504684); assay type: functional
[26] = A Cell Based Secondary Assay to Explore Cytotoxicity in THP-1 Cells of Compounds that Modulate Mycobacterium tuberculosis in Media Containing Glycerol versus Media without Glycerol (2).; assay type: functional
[27] = target: Phospholipase D1 (Homo sapiens, UniProt Q13393); assay: cellular phospholipase D1 inhibition IC50 – cell-based, dose response (AID 602151); assay type: functional;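 note: cellular PLD1 assay in Calu-1 cells stimulated with PMA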
[28] = target: Phospholipase D2 (Homo sapiens, UniProt O14939); assay: cellular phospholipase D2 inhibition IC50 – cell-based, dose response (AID 602147); assay type: functional;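 note: cellular assay in HEK293 cells overexpressing GFP-tagged PLD2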
[29] = tested on: HEK293; assay: HEK293T cell viability loss, resazurin readout – resazurin fluorescence, cytotoxicity control for NF-kB activator project, SAR follow-up (AID 493251); assay type: functional, cell-based; settings: Homo sapiens
[30] = tested on: HEK293; assay: SAR Analysis of small molecule inhibitors of both B-cell and T-cell specific antigen receptor-induced NF-kB activation in a HEK-293T cell line using a luminescence assay. [Related pubchem assays (depositor defined):AID435003, AID435022, AID465, AID489019, AID489029]; assay type: functional, cell-based; settings: Homo sapiens
[31] = tested on: Jurkat; assay: SAR Analysis of small molecule inhibitors of both B-cell and T-cell specific antigen receptor-induced NF-kB activation in a Jurkat cell line using a luminescence assay. [Related pubchem assays (depositor defined):AID435003, AID435022, AID465, AID489029]; assay type: functional, cell-based; settings: Homo sapiens
[32] = target: T3, Orexin/Hypocretin receptor type 1 (Homo sapiens, UniProt O43613); assay: (§1) Fluorescence-based cell-based high throughput dose response assay for antagonists of the orexin 1 receptor (OX1R; HCRTR1). [Related pubchem assays (depositor defined):AID434989, AID435008, AID463079, AID485270, AID492963, AID492964, AID492965, AID493232, AID504717, AID504718]; assay type: functional
[33] = (§2) Counterscreen for antagonists of the orexin 1 receptor (OX1R; HCRTR1): Fluorescence-based cell-based high throughput dose response assay to identify antagonists of the parental CHO cell line. [Related pubchem assays (depositor defined):AID434989, AID435008, AID463079, AID485270, AID492963, AID492964, AID492965, AID493232, AID504699, AID504701]; assay type: functional
[34] = target: T3, Orexin/Hypocretin receptor type 1; assay: as §1, with “Homogeneous Time Resolved Fluorescence (HTRF)-based” for “Fluorescence-based”; assay type: functional
[35] = tested on: CHO-K1; assay: as §2, with “Homogeneous time resolved fluorescence (HTRF)-based” for “Fluorescence-based”, “cell-based” for “cell-based high throughput”, “CHO-K1” for “CHO”; assay type: functional; settings: Cricetulus griseus;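 note: potency for inhibition of ATP-stimulated IP1 production as antagonists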
[36] = target: T4, Orexin receptor type 2 (Homo sapiens, UniProt O43614); assay: Counterscreen assay for antagonists of the orexin 1 receptor (OX1R; HCRTR1): Fluorescence-based cell-based dose response assay for antagonists of the orexin 2 receptor (OX2R; HCRTR2), run by assay provider.; assay type: functional
[37] = target: T4, Orexin receptor type 2; assay: Counterscreen assay for antagonists of the orexin 1 receptor (OX1R; HCRTR1): Homogeneous Time Resolved Fluorescence (HTRF)-based cell-based dose response assay for antagonists of the orexin 2 receptor (OX2R; HCRTR2), run by assay provider.; assay type: functional
[38] = target: Casein kinase II subunit alpha (Homo sapiens, UniProt P68400); assay type: functional
[39] = target: cAMP-dependent protein kinase catalytic subunit alpha (Homo sapiens, UniProt P17612); assay type: functional
[40] = target: Ribosomal protein S6 kinase alpha-3 (Homo sapiens, UniProt P51812); assay type: functional;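 note: measured within a kinome-wide profiling panel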
[41] = target: Serine/threonine-protein kinase MRCK alpha (Homo sapiens, UniProt Q5VT25); assay type: functional
[42] = target: Calcium/calmodulin-dependent protein kinase type 1 (Homo sapiens, UniProt Q14012); assay type: functional
[43] = target: Inhibitor of nuclear factor kappa-B kinase subunit beta (Homo sapiens, UniProt O14920); assay type: functional
[44] = target: 5'-AMP-activated protein kinase catalytic subunit alpha-1 (Homo sapiens, UniProt Q13131); assay type: functional

T4 sequence (O43614 whole entry): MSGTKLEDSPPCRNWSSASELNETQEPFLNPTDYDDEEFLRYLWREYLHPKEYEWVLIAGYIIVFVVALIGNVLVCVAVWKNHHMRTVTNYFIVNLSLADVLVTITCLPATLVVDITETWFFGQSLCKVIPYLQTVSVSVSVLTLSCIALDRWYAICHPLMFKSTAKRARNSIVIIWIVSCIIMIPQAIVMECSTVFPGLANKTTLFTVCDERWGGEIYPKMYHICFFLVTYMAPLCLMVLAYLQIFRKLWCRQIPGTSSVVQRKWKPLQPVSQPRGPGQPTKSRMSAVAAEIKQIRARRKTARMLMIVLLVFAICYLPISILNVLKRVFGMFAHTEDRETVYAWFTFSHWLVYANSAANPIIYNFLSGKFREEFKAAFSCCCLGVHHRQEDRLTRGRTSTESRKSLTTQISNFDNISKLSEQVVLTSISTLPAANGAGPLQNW
T3 sequence (O43613 whole entry): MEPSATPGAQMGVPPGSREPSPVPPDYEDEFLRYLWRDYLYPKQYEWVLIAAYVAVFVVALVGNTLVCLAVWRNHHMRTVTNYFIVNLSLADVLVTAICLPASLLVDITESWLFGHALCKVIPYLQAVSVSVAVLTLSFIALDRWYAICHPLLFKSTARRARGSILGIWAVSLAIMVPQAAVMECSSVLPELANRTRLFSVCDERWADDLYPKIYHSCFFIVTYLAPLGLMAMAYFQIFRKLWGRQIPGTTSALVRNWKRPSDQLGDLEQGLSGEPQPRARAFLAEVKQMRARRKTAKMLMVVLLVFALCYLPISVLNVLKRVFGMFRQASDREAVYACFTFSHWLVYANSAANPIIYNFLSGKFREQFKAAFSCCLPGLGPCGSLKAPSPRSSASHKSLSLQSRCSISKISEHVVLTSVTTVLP
Sequence of Calcium/calmodulin-dependent protein kinase type 1 (Q14012 whole entry): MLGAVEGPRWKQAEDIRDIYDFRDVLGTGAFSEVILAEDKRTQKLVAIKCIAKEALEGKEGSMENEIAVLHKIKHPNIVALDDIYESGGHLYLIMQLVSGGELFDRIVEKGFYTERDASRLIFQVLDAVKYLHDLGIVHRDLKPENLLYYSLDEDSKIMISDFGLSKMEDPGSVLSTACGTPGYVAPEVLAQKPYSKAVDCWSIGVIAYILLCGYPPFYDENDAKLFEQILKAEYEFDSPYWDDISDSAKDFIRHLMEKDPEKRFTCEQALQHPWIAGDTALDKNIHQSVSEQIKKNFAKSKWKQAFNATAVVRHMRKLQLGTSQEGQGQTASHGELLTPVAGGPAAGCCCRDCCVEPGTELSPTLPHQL
Sequence of Phospholipase D1 (Q13393 whole entry): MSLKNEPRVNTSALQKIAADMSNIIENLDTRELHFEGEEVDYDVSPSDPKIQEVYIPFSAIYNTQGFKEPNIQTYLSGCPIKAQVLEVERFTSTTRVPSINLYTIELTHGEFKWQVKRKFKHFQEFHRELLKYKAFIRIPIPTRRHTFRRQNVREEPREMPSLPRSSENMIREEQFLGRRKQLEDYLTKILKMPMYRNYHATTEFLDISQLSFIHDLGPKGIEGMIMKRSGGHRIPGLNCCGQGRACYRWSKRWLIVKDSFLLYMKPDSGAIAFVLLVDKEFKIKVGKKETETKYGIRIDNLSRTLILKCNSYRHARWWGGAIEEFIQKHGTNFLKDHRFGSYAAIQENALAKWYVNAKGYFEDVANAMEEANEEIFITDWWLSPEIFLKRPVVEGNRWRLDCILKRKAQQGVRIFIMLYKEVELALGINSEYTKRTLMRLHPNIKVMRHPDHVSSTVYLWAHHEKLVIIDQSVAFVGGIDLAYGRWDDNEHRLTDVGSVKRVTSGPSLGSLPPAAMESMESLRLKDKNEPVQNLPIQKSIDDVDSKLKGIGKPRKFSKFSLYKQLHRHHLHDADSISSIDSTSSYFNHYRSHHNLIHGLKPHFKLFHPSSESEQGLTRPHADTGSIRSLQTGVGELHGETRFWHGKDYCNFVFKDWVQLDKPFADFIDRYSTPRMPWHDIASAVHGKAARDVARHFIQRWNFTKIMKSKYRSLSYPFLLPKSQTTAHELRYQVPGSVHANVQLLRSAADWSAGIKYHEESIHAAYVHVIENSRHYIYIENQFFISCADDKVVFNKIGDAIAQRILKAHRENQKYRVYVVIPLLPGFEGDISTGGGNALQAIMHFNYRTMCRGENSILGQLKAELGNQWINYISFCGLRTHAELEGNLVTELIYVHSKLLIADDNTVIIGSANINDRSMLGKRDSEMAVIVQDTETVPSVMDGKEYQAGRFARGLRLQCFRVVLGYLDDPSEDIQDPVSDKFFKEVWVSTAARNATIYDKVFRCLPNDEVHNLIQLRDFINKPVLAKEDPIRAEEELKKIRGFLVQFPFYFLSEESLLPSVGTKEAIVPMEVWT
Sequence of Casein kinase II subunit alpha (P68400 whole entry): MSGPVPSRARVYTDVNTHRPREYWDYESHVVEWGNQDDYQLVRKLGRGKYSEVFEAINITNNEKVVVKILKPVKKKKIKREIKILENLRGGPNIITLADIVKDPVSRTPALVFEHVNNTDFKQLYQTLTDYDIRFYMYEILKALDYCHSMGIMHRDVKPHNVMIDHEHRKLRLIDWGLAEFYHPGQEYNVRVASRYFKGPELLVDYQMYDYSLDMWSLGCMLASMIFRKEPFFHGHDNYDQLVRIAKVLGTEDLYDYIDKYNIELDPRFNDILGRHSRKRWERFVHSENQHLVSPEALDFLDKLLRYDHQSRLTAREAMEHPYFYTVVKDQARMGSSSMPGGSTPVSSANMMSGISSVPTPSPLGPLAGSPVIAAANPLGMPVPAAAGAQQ
Sequence of Inhibitor of nuclear factor kappa-B kinase subunit beta (O14920 whole entry): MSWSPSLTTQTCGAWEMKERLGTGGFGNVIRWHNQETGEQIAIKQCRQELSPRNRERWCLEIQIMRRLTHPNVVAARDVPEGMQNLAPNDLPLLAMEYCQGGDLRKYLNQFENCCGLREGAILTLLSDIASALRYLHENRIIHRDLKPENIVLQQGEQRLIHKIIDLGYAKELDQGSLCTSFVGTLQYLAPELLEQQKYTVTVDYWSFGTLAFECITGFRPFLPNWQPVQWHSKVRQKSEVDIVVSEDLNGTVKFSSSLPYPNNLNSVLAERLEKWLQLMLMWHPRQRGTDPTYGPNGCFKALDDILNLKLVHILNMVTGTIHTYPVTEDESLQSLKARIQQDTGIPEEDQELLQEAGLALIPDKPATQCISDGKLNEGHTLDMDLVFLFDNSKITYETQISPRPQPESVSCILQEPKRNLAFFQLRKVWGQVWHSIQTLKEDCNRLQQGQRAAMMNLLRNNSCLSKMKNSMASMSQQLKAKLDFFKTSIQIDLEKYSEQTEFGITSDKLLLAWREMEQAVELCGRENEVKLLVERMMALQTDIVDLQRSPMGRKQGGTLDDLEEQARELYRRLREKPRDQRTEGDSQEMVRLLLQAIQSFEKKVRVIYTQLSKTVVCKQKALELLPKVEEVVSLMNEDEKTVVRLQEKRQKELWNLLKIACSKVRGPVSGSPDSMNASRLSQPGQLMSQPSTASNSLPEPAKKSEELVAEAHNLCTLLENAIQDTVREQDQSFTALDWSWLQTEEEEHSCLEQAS
Sequence of Luciferin 4-monooxygenase (P08659 whole entry): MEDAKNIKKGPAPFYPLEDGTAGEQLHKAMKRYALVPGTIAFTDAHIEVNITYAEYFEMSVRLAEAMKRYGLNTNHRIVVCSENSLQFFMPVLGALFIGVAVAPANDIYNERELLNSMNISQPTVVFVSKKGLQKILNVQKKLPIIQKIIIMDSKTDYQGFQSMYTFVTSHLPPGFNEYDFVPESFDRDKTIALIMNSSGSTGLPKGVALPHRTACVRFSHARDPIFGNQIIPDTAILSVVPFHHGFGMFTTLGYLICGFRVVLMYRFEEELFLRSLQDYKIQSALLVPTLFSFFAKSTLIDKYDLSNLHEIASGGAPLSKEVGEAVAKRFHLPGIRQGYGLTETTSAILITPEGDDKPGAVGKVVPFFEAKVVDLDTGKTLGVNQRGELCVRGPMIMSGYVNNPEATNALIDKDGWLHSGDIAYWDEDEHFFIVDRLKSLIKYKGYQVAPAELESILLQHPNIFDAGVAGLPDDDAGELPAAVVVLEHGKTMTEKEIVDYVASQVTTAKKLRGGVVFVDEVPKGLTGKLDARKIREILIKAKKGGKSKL
Sequence of Phospholipase D2 (O14939 whole entry): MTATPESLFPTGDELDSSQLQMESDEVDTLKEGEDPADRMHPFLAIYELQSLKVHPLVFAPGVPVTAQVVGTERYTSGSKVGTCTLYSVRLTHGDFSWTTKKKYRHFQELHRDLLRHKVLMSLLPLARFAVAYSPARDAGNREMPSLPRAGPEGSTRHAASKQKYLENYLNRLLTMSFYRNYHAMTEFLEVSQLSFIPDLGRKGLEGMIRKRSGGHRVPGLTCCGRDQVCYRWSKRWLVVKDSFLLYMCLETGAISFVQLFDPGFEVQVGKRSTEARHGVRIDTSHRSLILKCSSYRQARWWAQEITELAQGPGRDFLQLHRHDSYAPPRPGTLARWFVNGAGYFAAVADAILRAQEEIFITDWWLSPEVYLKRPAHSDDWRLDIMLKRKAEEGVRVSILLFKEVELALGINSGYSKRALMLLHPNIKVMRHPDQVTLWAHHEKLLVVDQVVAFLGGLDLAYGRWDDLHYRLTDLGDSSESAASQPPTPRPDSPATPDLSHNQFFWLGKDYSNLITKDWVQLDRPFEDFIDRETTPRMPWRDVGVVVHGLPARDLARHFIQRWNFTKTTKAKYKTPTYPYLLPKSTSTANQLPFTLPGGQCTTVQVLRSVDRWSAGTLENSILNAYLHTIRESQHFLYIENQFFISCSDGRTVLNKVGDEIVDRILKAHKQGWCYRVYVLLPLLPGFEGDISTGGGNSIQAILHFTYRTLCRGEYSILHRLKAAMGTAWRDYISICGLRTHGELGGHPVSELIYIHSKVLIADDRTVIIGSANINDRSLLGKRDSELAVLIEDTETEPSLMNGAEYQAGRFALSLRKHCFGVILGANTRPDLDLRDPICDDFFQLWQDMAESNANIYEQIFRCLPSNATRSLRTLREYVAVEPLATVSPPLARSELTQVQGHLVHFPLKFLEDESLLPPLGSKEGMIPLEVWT

CCOc1ccc(-c2ccc(SC)nn2)cc1
active: AC50 [1] 18.6 µM | AC50 [2] 76.7 µM | EC50 [4] 2.3 µM | AC50 [5] 2.36 µM | EC50 [6] 11.5 µM | AC50 [7] 20.8 µM | AC50 [8] 3.05 µM | EC50 [9] 9.86 µM | AC50 [10] 26.1 µM | EC50 [11] 1.74 µM | AC50 [12] 5.17 µM | EC50 [13] 9.15 µM | AC50 [14] 14 µM | AC50 [15] 15 µM
> 150 µM (not active): EC50 [3]

C[C@@H]1CC=C[C@H]2[C@H]1C(=O)N(Cc1ccccc1)[C@H]2c1cccc([N+](=O)[O-])c1
active: AC50 [16] 58.9 µM | EC50 [17] 22.7 µM

N/C(Cc1ccc(Cl)cc1)=N\OC(=O)c1cccc2ccccc12
active: AC50 [18] 1.8 µM

O=C(NCC(c1cccs1)N1CCOCC1)c1cc([N+](=O)[O-])cc([N+](=O)[O-])c1 (centres undefined)
> 60 µM (not active): EC50 [20]
active: CC50 [19] > 40 µM | EC50 [21] 0.726 µM | IC50 [22] 1.37 µM | CC50 [23] > 40 µM | CC50 [24] > 50 µM | CC50 [25] 44.4 µM | CC50 [26] 69 µM

O=C(NCCN1CCC(C(=O)NCC2CC2)CC1)c1ccc2ccccc2c1
active: IC50 [27] 20 µM | IC50 [28] 20 µM

Cc1ccc(S(=O)(=O)Nc2cccc3ccc(C)nc23)cc1
inactive: IC50 [29] > 80 µM | IC50 [30] > 79 µM
active: IC50 [31] 1.79 µM

O=C(NC(Cc1c[nH]c2ccccc12)C(=O)N/N=C/c1ccc(Br)cc1)c1cccs1 (centres undefined)
inactive: IC50 [33] > 49.8 µM | IC50 [35] > 66.2 µM | IC50 [36] 14.3 µM | IC50 [37] 11.1 µM
active: IC50 [32] 7.4 µM | IC50 [34] 2.99 µM

NCCn1cc(-c2cc(-c3cc4ccccc4s3)c3[nH]ncc3c2)c2nc(N)ncc21
active: Ki [39] 0.0501 µM | Ki [40] 3.16 µM | Ki [41] 3.16 µM | Ki [43] 0.251 µM | Ki [44] 0.398 µM
inactive: Ki [38] > 6.31 µM | Ki [42] > 7.94 µM
